Read-outs that look alike come from different tables or passages of the source.
What was measured:
TBK1 = molecular target: T1, TBK1 (Homo sapiens, UniProt Q9UHD2); test: TBK Biochemical Assay; details: read-out: TBK1 IC50
T1 sequence (Q9UHD2 1-729): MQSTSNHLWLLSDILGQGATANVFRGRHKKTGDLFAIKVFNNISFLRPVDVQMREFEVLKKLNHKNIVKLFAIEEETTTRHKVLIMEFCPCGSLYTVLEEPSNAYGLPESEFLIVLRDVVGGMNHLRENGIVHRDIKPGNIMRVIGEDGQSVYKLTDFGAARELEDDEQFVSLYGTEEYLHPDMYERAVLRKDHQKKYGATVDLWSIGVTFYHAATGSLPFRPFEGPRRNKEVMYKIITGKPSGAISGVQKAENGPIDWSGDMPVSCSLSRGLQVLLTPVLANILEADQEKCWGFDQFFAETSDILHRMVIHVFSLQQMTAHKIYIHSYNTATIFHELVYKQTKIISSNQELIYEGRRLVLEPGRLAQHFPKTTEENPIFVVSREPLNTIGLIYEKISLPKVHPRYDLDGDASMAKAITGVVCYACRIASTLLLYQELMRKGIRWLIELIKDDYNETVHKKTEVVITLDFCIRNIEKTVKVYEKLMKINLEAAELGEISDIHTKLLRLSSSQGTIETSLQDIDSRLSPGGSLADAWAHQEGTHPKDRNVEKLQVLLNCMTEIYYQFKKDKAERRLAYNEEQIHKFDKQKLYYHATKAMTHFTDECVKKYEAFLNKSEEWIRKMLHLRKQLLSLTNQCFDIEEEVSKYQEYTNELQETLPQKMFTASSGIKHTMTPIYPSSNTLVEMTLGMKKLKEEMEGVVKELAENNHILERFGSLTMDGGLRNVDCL
In short: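 Caliper LabChip mobility-shift readout of substrate and product after 90 min of TBK1 reaction at 25° C and stop-buffer addition. Compounds tested in 1:4 serial dilution over 10 points from 30 uM final at 1% DMSO; staurosporine 10 uM final defines full inhibition.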

IKKε = molecular target: T2, IKKε (Homo sapiens, UniProt Q14164); test: IKKe Biochemical Assay; details: read-out: IKKε IC50
T2 sequence (Q14164 1-716): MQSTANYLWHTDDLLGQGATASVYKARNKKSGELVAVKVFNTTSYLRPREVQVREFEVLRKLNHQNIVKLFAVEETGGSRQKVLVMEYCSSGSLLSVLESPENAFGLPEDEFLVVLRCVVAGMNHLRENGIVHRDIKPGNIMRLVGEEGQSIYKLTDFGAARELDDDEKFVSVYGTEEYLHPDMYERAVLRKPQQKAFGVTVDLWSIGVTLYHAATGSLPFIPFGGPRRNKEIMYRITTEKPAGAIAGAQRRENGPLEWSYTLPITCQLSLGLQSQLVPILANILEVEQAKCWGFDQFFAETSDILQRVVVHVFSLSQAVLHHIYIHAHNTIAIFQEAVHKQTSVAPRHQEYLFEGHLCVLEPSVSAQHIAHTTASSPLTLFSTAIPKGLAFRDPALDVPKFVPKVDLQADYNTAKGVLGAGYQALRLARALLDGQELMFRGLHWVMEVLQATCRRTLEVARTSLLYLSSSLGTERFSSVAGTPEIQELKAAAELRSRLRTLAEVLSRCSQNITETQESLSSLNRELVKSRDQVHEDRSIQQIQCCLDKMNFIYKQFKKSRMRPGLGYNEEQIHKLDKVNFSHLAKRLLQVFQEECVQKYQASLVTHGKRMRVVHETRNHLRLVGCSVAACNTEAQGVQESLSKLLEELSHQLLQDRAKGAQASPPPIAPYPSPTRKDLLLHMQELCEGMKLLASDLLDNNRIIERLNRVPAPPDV
In short: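 Activity was measured as mobility-shift separation of phosphorylated from unphosphorylated substrate on a LabChip EZ Reader. Compound was titrated from 30 uM final in 10 points, 1:4 steps, with 1% DMSO, and enzyme plus substrate reacted 90 min at 25° C before stop buffer. Control wells held 10 uM staurosporine.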

[1] = system: phosphorylation of the IRF-3 protein in MDA-MB-468 cells; test: pIRF3 immunocytochemistry cell based assay; details: MDA-MB-468 cells, Poly(I:C) stimulation, read-out: pIRF3 IC50
In short: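 After 2 h stimulation with Poly(I:C) (10 ug/ml), following 1 h compound pre-treatment (10-point, 3-fold dilution, top 10 uM), MDA-MB-468 cells were fixed and stained with anti-pIRF3 antibody. pIRF3 fluorescence was normalized to PI staining or cell count on an Acumen cytometer. IC50 curves were derived from this.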

Compound	IC50 (TBK1) [µM]	IC50 (IKKε) [µM]	IC50 ([1]; Homo sapiens) [µM]	IC50 [1] [µM]
COc1cc(C(=O)N(C)C)ncc1-c1cc2nccc(-c3ccc(OC4CCN(C(C)C)C4)c(C#N)c3)c2o1 (stereo not drawn) [Compound 428, 5-[7-(3-cyano-4-[[1-(propan-2-yl)pyrrolidin-3-yl]oxy]phenyl)furo[3,2-b]pyridin-2-yl]-4-methoxy-N,N-dimethylpyridine-2-carboxamide]	1 to 5	1 to 5	0.1 to 1	
COc1cc(C(=O)N(C)C)ncc1-c1cc2nccc(-c3ccc(OC4CCNC4)c(C#N)c3)c2o1 (stereo not drawn) [Compound 429, 5-[7-[3-cyano-4-(pyrrolidin-3-yloxy)phenyl]furo[3,2-b]pyridin-2-yl]-4-methoxy-N,N-dimethylpyridine-2-carboxamide]	< 0.1	< 0.1	0.1 to 1	
COc1cc(C(=O)N(C)C)ncc1-c1cc2nccc(-c3ccc(OC4CCN(C)C4)c(C#N)c3)c2o1 (stereo not drawn) [Compound 430, 5-(7-[3-cyano-4-[(1-methylpyrrolidin-3-yl)oxy]phenyl]furo[3,2-b]pyridin-2-yl)-4-methoxy-N,N-dimethylpyridine-2-carboxamide]	0.1 to 1	0.1 to 1	0.1 to 1	
COc1cc(C(=O)N(C)C)ncc1-c1cc2nccc(-c3ccc(NC4CCNC4)c(C#N)c3)c2o1 (stereo not drawn) [Compound 431, 5-(7-[3-cyano-4-[(pyrrolidin-3-yl)amino]phenyl]furo[3,2-b]pyridin-2-yl)-4-methoxy-N,N-dimethylpyridine-2-carboxamide]	< 0.1	< 0.1	< 0.1	
COc1cc(C(=O)N(C)C)cnc1-c1cc2nccc(-c3ccc(NC4CCNC4)c(C#N)c3)c2o1 (stereo not drawn) [Compound 432, 6-(7-[3-cyano-4-[(pyrrolidin-3-yl)amino]phenyl]furo[3,2-b]pyridin-2-yl)-5-methoxy-N,N-dimethylpyridine-3-carboxamide]	< 0.1	< 0.1	< 0.1	
COc1cc(C(=O)N(C)C)cnc1-c1cc2nccc(-c3ccc(NC4CCN(C)C4)c(C#N)c3)c2o1 (stereo not drawn) [Compound 433, 6-(7-[3-cyano-4-[(1-methylpyrrolidin-3-yl)amino]phenyl]furo[3,2-b]pyridin-2-yl)-5-methoxy-N,N-dimethylpyridine-3-carboxamide]	< 0.1	< 0.1	< 0.1	
COc1cc(C(=O)N(C)C)ncc1-c1cc2nccc(-c3ccc(NC4CCN(C)C4)c(C#N)c3)c2o1 (stereo not drawn) [Compound 434, 5-(7-[3-cyano-4-[(1-methylpyrrolidin-3-yl)amino]phenyl]furo[3,2-b]pyridin-2-yl)-4-methoxy-N,N-dimethylpyridine-2-carboxamide]	< 0.1	< 0.1	< 0.1	
COc1cc(C(=O)N2CC3CC(C2)O3)cnc1-c1cc2nccc(-c3ccc(OC4CCOCC4)c(C#N)c3)c2o1 [Compound 435, 5-[2-[3-methoxy-5-([6-oxa-3-azabicyclo[3.1.1]heptan-3-yl]carbonyl)pyridin-2-yl]furo[3,2-b]pyridin-7-yl]-2-(oxan-4-yloxy)benzonitrile]	< 0.1	< 0.1	< 0.1	
COc1cc(C(=O)N(C)C)cnc1-c1cc2nccc(-c3ccc(NC4C5COCC54)c(C#N)c3)c2o1 (stereo not drawn) [Compound 436, 6-[7-[3-cyano-4-([3-oxabicyclo[3.1.0]hexan-6-yl]amino)phenyl]furo[3,2-b]pyridin-2-yl]-5-methoxy-N,N-dimethylpyridine-3-carboxamide]	< 0.1	< 0.1	< 0.1	
COc1cc(C(=O)N(C)C)ncc1-c1cc2nccc(-c3ccc(NC4C5COCC54)c(C#N)c3)c2o1 (stereo not drawn) [Compound 437, 5-[7-[3-cyano-4-([3-oxabicyclo[3.1.0]hexan-6-yl]amino)phenyl]furo[3,2-b]pyridin-2-yl]-4-methoxy-N,N-dimethylpyridine-2-carboxamide]	< 0.1	< 0.1	0.1 to 1	
COc1cc(C(=O)NC2CN3CCC2CC3)cnc1-c1cc2nccc(-c3ccc(N4CCC(F)C4)c(C#N)c3)c2o1 (stereo not drawn) [Compound 438, N-[1-azabicyclo[2.2.2]octan-3-yl]-6-[7-[3-cyano-4-(3-fluoropyrrolidin-1-yl)phenyl]furo[3,2-b]pyridin-2-yl]-5-methoxypyridine-3-carboxamide]	< 0.1	< 0.1	0.1 to 1	
COc1cc(C(=O)NC2CN3CCC2CC3)cnc1-c1cc2nccc(-c3ccc(N4CC[C@H](F)C4)c(C#N)c3)c2o1 (stereo partly drawn) [Compound 439, N—(S)-1-Aza-bicyclo[2.20.2]oct-3-yl-6-{7-[3-cyano-4-((S)-3-fluoro-pyrrolidin-1-yl)-phenyl]-furo[3,2-b]pyridin-2-yl}-5-methoxy-nicotinamide]	< 0.1	< 0.1	0.1 to 1	
COc1cc(C(=O)NC2CN3CCC2CC3)cnc1-c1cc2nccc(-c3ccc(N4CC[C@@H](F)C4)c(C#N)c3)c2o1 (stereo partly drawn) [Compound 440, N—(S)-1-Aza-bicyclo[2.20.2]oct-3-yl-6-{7-[3-cyano-4-((R)-3-fluoro-pyrrolidin-1-yl)-phenyl]-furo[3,2-b]pyridin-2-yl}-5-methoxy-nicotinamide]	< 0.1	< 0.1	0.1 to 1	
COc1cc(C(=O)NC2CN3CCC2CC3)cnc1-c1cc2nccc(-c3ccc(N4CC[C@H](F)C4)c(C#N)c3)c2o1 (stereo partly drawn) [Compound 441, N—(R)-1-Aza-bicyclo[2.20.2]oct-3-yl-6-{7-[3-cyano-4-((S)-3-fluoro-pyrrolidin-1-yl)-phenyl]-furo[3,2-b]pyridin-2-yl}-5-methoxy-nicotinamide]	< 0.1	< 0.1		0.1 to 1
COc1cc(C(=O)NC2CN3CCC2CC3)cnc1-c1cc2nccc(-c3ccc(N4CC[C@@H](F)C4)c(C#N)c3)c2o1 (stereo partly drawn) [Compound 442, N—(R)-1-Aza-bicyclo[2.20.2]oct-3-yl-6-{7-[3-cyano-4-((R)-3-fluoro-pyrrolidin-1-yl)-phenyl]-furo[3,2-b]pyridin-2-yl}-5-methoxy-nicotinamide]	< 0.1	< 0.1		0.1 to 1
COc1cc(C(=O)NC2CN3CCC2CC3)ncc1-c1cc2nccc(-c3ccc(N4CCC(F)C4)c(C#N)c3)c2o1 (stereo not drawn) [Compound 443, N-[1-azabicyclo[2.2.2]octan-3-yl]-5-[7-[3-cyano-4-(3-fluoropyrrolidin-1-yl)phenyl]furo[3,2-b]pyridin-2-yl]-4-methoxypyridine-2-carboxamide]	< 0.1	< 0.1	0.1 to 1	
COc1cc(C(=O)N[C@@H]2CN3CCC2CC3)ncc1-c1cc2nccc(-c3ccc(N4CC[C@H](F)C4)c(C#N)c3)c2o1 [Compound 444, 5-{7-[3-Cyano-4-((S)-3-fluoro-pyrrolidin-1-yl)-phenyl]-furo[3,2-b]pyridin-2-yl}-4-methoxy-pyridine-2-carboxylic acid (1-aza-bicyclo[2.20.2]oct-3-yl)-amide]	< 0.1	< 0.1	< 0.1	

— patent publication US10428080B2, “TBK/IKK inhibitor compounds and uses thereof” (Merck Patent GmbH, priority 2015, dated 2019)
